In patent US6403626B1, “Benzimidazole derivatives” (Synaptic Pharmaceutical Corporation, priority 1994, dated 2002):
Structures can show the parent of a compound that is named as a salt.

Row | Structure (SMILES) | melting point [°C]
1 | COc1cccc(Cn2cnc3c(Br)c(NC4=NCCN4)ccc32)c1 (as salt: fumarate) [Example 37, 1-(3-Methoxybenzyl)-4-bromo-5-(2-imidazolin-2-ylamino)Benzimidazole] | 177 to 178
2 | Brc1c(NC2=NCCN2)ccc2c1ncn2Cc1ccccc1 (as salt: fumarate) [Example 33, 1-Benzyl-4-bromo-5-(2-imidazolin-2-ylamino)Benzimidazole] | 197 to 198
3 | Cc1nc2ccc(NC3=NCCN3)c(Br)c2[nH]1 (as salt: fumarate) [Example 42, 2-Methyl-4-bromo-5-(2-imidazolin-2-ylamino)Benzimidazole] | 222 to 224
4 | Brc1c(NC2=NCCN2)ccc2c1ncn2CC1CCCCC1 (as salt: fumarate) [Example 30, 1-Cyclohexylmethyl-4-bromo-5-(2-imidazolin-2-ylamino)Benzimidazole] | 193 to 195
5 | Ic1c(NC2=NCCN2)ccc2nc[nH]c12 (as salt: fumarate) [Example 5, 4-Iodo-5-(2-imidazolin-2-ylamino)Benzimidazole] | 256
6 | CC(C)c1nc2ccc(NC3=NCCN3)c(Br)c2[nH]1 (as salt: fumarate) [Example 44, 2-Isopropyl-4-bromo-5-(2-imidazolin-2-ylamino)Benzimidazole] | 176 to 178
7 | c1cc2c(cc1NC1=NCCN1)ncn2C1CCCC1 (as salt: fumarate) [Example 25, 1-Cyclopentyl-5-(2-imidazolin-2-ylamino)Benzimidazole] | 214 to 215
8 | Brc1c(NC2=NCCN2)ccc2nc(C(c3ccccc3)c3ccccc3)[nH]c12 (as salt: fumarate) [Example 48, 2-Diphenylmethyl-4-bromo-5-(2-imidazolin-2-ylamino)Benzimidazole] | 240 to 242
9 | Brc1c(NC2=NCCN2)ccc2ncn(C3CCCC3)c12 (as salt: fumarate) [Example 28, 3-Cyclopentyl-4-bromo-5-(2-imidazolin-2-ylamino)Benzimidazole] | 208 to 210
10 | Brc1c(NC2=NCCN2)ccc2nc[nH]c12 (as salt: fumarate) [Example 2, 4-Bromo-5-(2-imidazolin-2-ylamino)Benzimidazole] | 199 to 202
11 | c1ccc(Cn2cnc3ccc(NC4=NCCN4)cc32)cc1 (as salt: fumarate) [Example 34, 3-Benzyl-5-(2-imidazolin-2-ylamino)Benzimidazole] | 174 to 175
12 | CC(C)(C)c1nc2ccc(NC3=NCCN3)c(Br)c2[nH]1 (as salt: fumarate) [Example 45, 2-tert-Butyl-4-bromo-5-(2-imidazolin-2-ylamino)Benzimidazole] | 176 to 178
13 | Brc1c(NC2=NCCN2)ccc2c1ncn2C1CCCC1 (as salt: fumarate) [Example 26, 1-Cyclopentyl-4-bromo-5-(2-imidazolin-2-ylamino)Benzimidazole] | 180 to 182
14 | c1nc2ccc(NC3=NCCN3)cc2[nH]1 (as salt: fumarate) [Example 1, 5-(2-Imidazolin-2-ylamino)Benzimidazole] | 196 to 198
15 | Cc1cc2nc[nH]c2cc1NC1=NCCN1 (as salt: fumarate) [Example 49, 6-Methyl-5-(2-imidazolin-2-ylamino)Benzimidazole] | 219 to 221
16 | c1ccc(Cn2cnc3cc(NC4=NCCN4)ccc32)cc1 (as salt: fumarate) [Example 32, 1-Benzyl-5-(2-imidazolin-2-ylamino)Benzimidazole] | 174 to 175
17 | Brc1c(NC2=NCCN2)ccc2ncn(Cc3ccccc3)c12 (as salt: fumarate) [Example 35, 3-Benzyl-4-bromo-5-(2-imidazolin-2-ylamino)Benzimidazole] | 203 to 205
18 | CC(C)n1cnc2cc(NC3=NCCN3)ccc21 (as salt: fumarate) [Example 17, 1-Isopropyl-5-(2-imidazolin-2-ylamino)Benzimidazole] | 185 to 186
